From ChEMBL document CHEMBL4270599, “Synthesis of a 3'-C-ethynyl-β-d-ribofuranose purine nucleoside library: Discovery of C7-deazapurine analogs as potent antiproliferative nucleosides” (Eur J Med Chem, 2018)

Columns and labels:
Assay type in all cases: functional
HCT-15 [1] = assay: Cytotoxicity against human HCT15 cells after 48 hrs by SRB assay; details: HCT-15, 48 h; for CC50: read-out: pLC50 (the source's name) (converted)
MDA-MB-231 [2] = assay: Growth inhibition of human MDA-MB-231 cells assessed as cell growth at 10^-5 M incubated for 48 hrs by sulforhodamine B assay relative to control; details: MDA-MB-231, 48 h, read-out: Activity
Hs-578T [3] = assay: Growth inhibition of human Hs 578T cells assessed as cell growth at 10^-6 M incubated for 48 hrs by sulforhodamine B assay relative to control; details: read-out: Activity
CCRF-CEM = assay: Growth inhibition of human CCRF-CEM cells assessed as cell growth at 10^-6 M incubated for 48 hrs by sulforhodamine B assay relative to control; details: read-out: Activity
M14 = assay: Growth inhibition of human M14 cells assessed as cell growth at 10^-8 M incubated for 48 hrs by sulforhodamine B assay relative to control; details: M14, 48 h, read-out: Activity
DU-145 [4] = assay: Growth inhibition of human DU145 cells assessed as cell growth at 10^-7 M incubated for 48 hrs by sulforhodamine B assay relative to control; details: DU-145, 48 h, read-out: Activity
DU-145 [5] = assay: Growth inhibition of human DU145 cells assessed as cell growth at 10^-5 M incubated for 48 hrs by sulforhodamine B assay relative to control; details: DU-145, 48 h, read-out: Activity
NCI-H522 = assay: Growth inhibition of human NCI-H522 cells assessed as cell growth at 10^-7 M incubated for 48 hrs by sulforhodamine B assay relative to control; details: NCI-H522, 48 h, read-out: Activity
SNB-75 = assay: Growth inhibition of human SNB75 cells assessed as cell growth at 10^-7 M incubated for 48 hrs by sulforhodamine B assay relative to control; details: SNB-75, 48 h, read-out: Activity
ACHN = assay: Cytotoxicity against human ACHN cells after 48 hrs by SRB assay
SNB-19 [6] = assay: Growth inhibition of human SNB19 cells assessed as cell growth at 10^-7 M incubated for 48 hrs by sulforhodamine B assay relative to control; details: SNB-19, 48 h, read-out: Activity
UO-31 = assay: Growth inhibition of human UO31 cells assessed as cell growth at 10^-8 M incubated for 48 hrs by sulforhodamine B assay relative to control; details: UO-31, 48 h, read-out: Activity
UACC-257 [7] = assay: Growth inhibition of human UACC257 cells assessed as cell growth at 10^-8 M incubated for 48 hrs by sulforhodamine B assay relative to control; details: UACC-257, 48 h, read-out: Activity
TK-10 = assay: Growth inhibition of human TK10 cells assessed as cell growth at 10^-8 M incubated for 48 hrs by sulforhodamine B assay relative to control; details: TK-10, 48 h, read-out: Activity
MDA-MB-435 = assay: Growth inhibition of human MDA-MB-435 cells assessed as cell growth at 10^-6 M incubated for 48 hrs by sulforhodamine B assay relative to control; details: MDA-MB-435, 48 h, read-out: Activity
SR [8] = assay: Growth inhibition of human SR cells assessed as cell growth at 10^-8 M incubated for 48 hrs by sulforhodamine B assay relative to control; details: read-out: Activity
SF-539 = assay: Growth inhibition of human SF539 cells assessed as cell growth at 10^-6 M incubated for 48 hrs by sulforhodamine B assay relative to control; details: SF-539, 48 h, read-out: Activity
A498 = assay: Growth inhibition of human A498 cells assessed as cell growth at 10^-7 M incubated for 48 hrs by sulforhodamine B assay relative to control; details: A498, 48 h, read-out: Activity
Malme-3M = assay: Growth inhibition of human MALME-3M cells assessed as cell growth at 10^-5 M incubated for 48 hrs by sulforhodamine B assay relative to control; details: read-out: Activity
SR [9] = assay: Growth inhibition of human SR cells assessed as cell growth at 10^-6 M incubated for 48 hrs by sulforhodamine B assay relative to control; details: read-out: Activity
Hs-578T [10] = assay: Growth inhibition of human Hs 578T cells assessed as cell growth at 10^-7 M incubated for 48 hrs by sulforhodamine B assay relative to control; details: read-out: Activity
PC-3 = assay: Growth inhibition of human PC3 cells assessed as cell growth at 10^-8 M incubated for 48 hrs by sulforhodamine B assay relative to control; details: PC-3, 48 h, read-out: Activity
HL-60(TB) = assay: Growth inhibition of human HL-60(TB) cells assessed as cell growth at 10^-5 M incubated for 48 hrs by sulforhodamine B assay relative to control; details: HL-60, 48 h, read-out: Activity
HCC 2998 = assay: Growth inhibition of human HCC2998 cells assessed as cell growth at 10^-8 M incubated for 48 hrs by sulforhodamine B assay relative to control; details: HCC 2998, 48 h, read-out: Activity
NCI-H23 = assay: Growth inhibition of human NCI-H23 cells assessed as cell growth at 10^-8 M incubated for 48 hrs by sulforhodamine B assay relative to control; details: NCI-H23, 48 h, read-out: Activity
HCT-116 = assay: Growth inhibition of human HCT116 cells assessed as cell growth at 10^-6 M incubated for 48 hrs by sulforhodamine B assay relative to control; details: HCT-116, 48 h, read-out: Activity
BT-549 = assay: Growth inhibition of human BT549 cells assessed as cell growth at 10^-5 M incubated for 48 hrs by sulforhodamine B assay relative to control; details: BT-549, 48 h, read-out: Activity
SNB-19 [11] = assay: Growth inhibition of human SNB19 cells assessed as cell growth at 10^-8 M incubated for 48 hrs by sulforhodamine B assay relative to control; details: SNB-19, 48 h, read-out: Activity
DU-145 [12] = assay: Growth inhibition of human DU145 cells assessed as cell growth at 10^-4 M incubated for 48 hrs by sulforhodamine B assay relative to control; details: DU-145, 48 h, read-out: Activity
UACC-257 [13] = assay: Growth inhibition of human UACC257 cells assessed as cell growth at 10^-5 M incubated for 48 hrs by sulforhodamine B assay relative to control; details: UACC-257, 48 h, read-out: Activity
SK-MEL-5 = assay: Growth inhibition of human SK-MEL-5 cells assessed as cell growth at 10^-7 M incubated for 48 hrs by sulforhodamine B assay relative to control; details: SK-MEL-5, 48 h, read-out: Activity
MDA-MB-231 [14] = assay: Growth inhibition of human MDA-MB-231 cells assessed as cell growth at 10^-8 M incubated for 48 hrs by sulforhodamine B assay relative to control; details: MDA-MB-231, 48 h, read-out: Activity
HCT-15 [15] = assay: Growth inhibition of human HCT15 cells assessed as cell growth at 10^-6 M incubated for 48 hrs by sulforhodamine B assay relative to control; details: HCT-15, 48 h, read-out: Activity
NCI-H460 = assay: Growth inhibition of human NCI-H460 cells assessed as cell growth at 10^-6 M incubated for 48 hrs by sulforhodamine B assay relative to control; details: NCI-H460, 48 h, read-out: Activity
[16] = read-out: LC50 (the source's name)

SMILES | TGI (HCT-15 [1]; read-out: TGI) [µM] | CC50 (HCT-15 [1]) [µM] | TGI (HCT-15 [1]; read-out: pTGI (converted)) [µM] | growth at 1 µM (Hs-578T [3]) [%] | growth at 1 µM (CCRF-CEM) [%] | growth at 0.01 µM (M14) [%] | growth at 0.1 µM (DU-145 [4]) [%] | growth at 10 µM (DU-145 [5]) [%] | growth at 0.1 µM (NCI-H522) [%] | growth at 0.1 µM (SNB-75) [%] | GI50 (ACHN) [µM] | growth at 0.1 µM (SNB-19 [6]) [%] | growth at 0.01 µM (UO-31) [%] | growth at 0.01 µM (UACC-257 [7]) [%] | growth at 0.01 µM (TK-10) [%] | growth at 0.01 µM (SR [8]) [%] | growth at 1 µM (SF-539) [%] | growth at 0.1 µM (A498) [%] | growth at 1 µM (SR [9]) [%] | growth at 0.1 µM (Hs-578T [10]) [%] | other results
C#C[C@@]1(O)[C@@H](CO)O[C@@H](n2ccc3c(N)ncnc32)[C@@H]1O | 4.62 | > 100 | 4.57 | 114 | 70 | 93 | 98 | -8 | 78 | 95 | 0.562 | 98 | 94 | 100 | 101 | 101 | 88 | 105 | 46 | 100 | GI50 (HCT-15 [1]; read-out: pGI50 (converted)): 0.891 µM; growth at 10 µM (MDA-MB-231 [2]): -20%; CC50 (ACHN; [16]): > 100 µM; TGI (ACHN; read-out: TGI): 4.48 µM; TGI (ACHN; read-out: pTGI (converted)): 4.47 µM; growth at 1 µM (MDA-MB-435): 73%; growth at 10 µM (Malme-3M): -25%; growth at 0.01 µM (PC-3): 97%; growth at 10 µM (HL-60(TB)): -24%; growth at 0.01 µM (HCC 2998): 99%; growth at 0.01 µM (NCI-H23): 95%; growth at 1 µM (HCT-116): 38%; growth at 10 µM (BT-549): -63%; growth at 0.01 µM (SNB-19 [11]): 99%; growth at 100 µM (DU-145 [12]): -48%; growth at 10 µM (UACC-257 [13]): -16%; growth at 0.1 µM (SK-MEL-5): 101%; growth at 0.01 µM (MDA-MB-231 [14]): 104%; growth at 1 µM (HCT-15 [15]): 48%; growth at 1 µM (NCI-H460): 30%
C#C[C@@]1(O)[C@@H](CO)O[C@@H](n2cc(F)c3c(N)ncnc32)[C@@H]1O | 3.19 | > 100 | 3.16 | 97 | 23 | 101 | 92 | 1 | 68 | 107 | 0.24 | 79 | 94 | 91 | 95 | 101 | 60 | 95 | 9 | 106 | GI50 (HCT-15 [1]; read-out: pGI50 (converted)): 0.295 µM; growth at 10 µM (MDA-MB-231 [2]): -24%; CC50 (ACHN; [16]): > 100 µM; TGI (ACHN; read-out: TGI): > 100 µM; TGI (ACHN; read-out: pTGI (converted)): > 100 µM; growth at 1 µM (MDA-MB-435): 28%; growth at 10 µM (Malme-3M): -34%; growth at 0.01 µM (PC-3): 92%; growth at 10 µM (HL-60(TB)): -17%; growth at 0.01 µM (HCC 2998): 98%; growth at 0.01 µM (NCI-H23): 97%; growth at 1 µM (HCT-116): 4%; growth at 10 µM (BT-549): -28%; growth at 0.01 µM (SNB-19 [11]): 93%; growth at 100 µM (DU-145 [12]): -4%; growth at 10 µM (UACC-257 [13]): -17%; growth at 0.1 µM (SK-MEL-5): 78%; growth at 0.01 µM (MDA-MB-231 [14]): 99%; growth at 1 µM (HCT-15 [15]): 18%; growth at 1 µM (NCI-H460): 5%
C#C[C@@]1(O)[C@@H](CO)O[C@@H](n2cc(Cl)c3c(N)ncnc32)[C@@H]1O | > 100 | > 100 | > 100 | 25 to 77 | 7 | 93 to 94 | 51 to 61 | 1 to 2 | 47 to 62 | 104 to 110 | 0.219 | 12 to 70 | 67 to 82 | 87 to 100 | 96 to 105 | 107 to 108 | 6 to 10 | 105 to 111 | 5 to 6 | 100 to 107 | GI50 (HCT-15 [1]; read-out: GI50): 0.134 to 0.152 µM; CC50 (ACHN; read-out: pLC50 (the source's name) (converted)): > 100 µM; growth at 0.01 µM (PC-3): 91 to 94%; growth at 0.01 µM (HCC 2998): 92 to 99%; growth at 0.01 µM (NCI-H23): 88 to 89%; growth at 0.01 µM (SNB-19 [11]): 68 to 94%; growth at 10 µM (UACC-257 [13]): 34 to 42%; growth at 0.1 µM (SK-MEL-5): 55 to 69%; growth at 0.01 µM (MDA-MB-231 [14]): 88 to 100%; growth at 1 µM (HCT-15 [15]): 1%
